Measurements published in US20210008095A1, “METHODS FOR TREATING MUSCULAR DYSTROPHY” (Sarepta Therapeutics, Inc., priority 2015, published 2021).
“And” between values parts separate entries of the source, which are not always exact repeats. Equal values may be shown once.

Tests used:
[1] = test system: exon 51 of the human dystrophin gene; assay: Exon 51 skipping in patient muscle biopsy at week 180; type: in vivo; conditions: 180 weeks
Method: (§1) Patients continued weekly dosing with 30 or 50 mg/kg eteplirsen under Study 202 (Study no. 4658-us-202; ClinicalTrials.gov Identifier: NCT01540409) a long-term, open-label extension study. All efficacy assessments continued to be performed during Study 202, including a third biopsy (in the left deltoid muscle) in all patients at week 48. A voluntary fourth biopsy ( 11/12 patients) was performed at week 180. Monitoring of adverse events continued throughout the study.

[2] = test system: patients with Duchenne muscular dystrophy (DMD) amenable to exon 51 skipping; assay: North Star Ambulatory Assessment (NSAA); type: in vivo, human; set-up: key to Year 3 NSAA Score: sum of activity scores, each 2 = normal to 0 = unable independently
Excerpt: Due to decreases in muscle function in patients with DMD, ambulation is often lost during disease progression. Ambulation can be measured through various methods, including the North Star Ambulatory Assessment (NSAA). The NSAA was developed by the Physiotherapy Assessment and Evaluation Group of the North Start Clinical Network to assess ambulant boys with DMD, and provides a list of activities that are scored from 2-0, with 2 being normal and 0 being “unable to achieve independently” (2006-2011 MDC/North Star Clinical Network). These activities range from standing for a minimum of 3 seconds to climbing up and down a box to running. In certain embodiments, treatment with eteplirsen may maintain, stabilize, increase, or improve ambulation, for example, as determined by the NSAA.
(§2) The 6MWT was administered using the protocol established for patients with DMD by McDonald, et al. (Muscle Nerve, 2010; 42:966-74; Muscle Nerve, 2010; 41:500-10 herein incorporated by reference), except there was no use of the StepWatch actimetry device. Exploratory functional outcomes included the North Star Ambulatory Assessment, quantitative muscle testing, the 9-Hole Peg Test, pulmonary function testing (PFT), timed function tests, and assessment of quality of life.

dystrophin [3] = assay: Dystrophin positive fibers by immunohistochemistry (MANDYS106) in muscle biopsy; type: in vivo, human
Method: as §1
Dystrophin expression levels were determined in both the eteplirsen treated cohort and matched external control cohort, based on MANDYS106 [a gift from Glen Morris, MDA Monoclonal Antibody Library], a highly sensitive marker for dystrophin used in prior studies of eteplirsen and other exon skipping candidates. Three 10 μm frozen sections, separated by at least 200 μm, were stained with MANDYS106, followed by a secondary antibody (Alexa Fluor 594 goat antimouse antibody). Four pathologists reviewed the tissue blinded and reported percent dystrophin-positive fibers, which were calculated by dividing the number of positive fibers by the total fibers counted. As normal muscle samples have 100% dystrophin-positive fibers, percent dystrophin-positive fibers is expressed as a percentage of normal.

dystrophin [4] = assay: Dystrophin protein expression by western blot analysis in muscle biopsy; type: in vivo, human; conditions: 180 weeks
Method: In some embodiments, the percent dystrophin-positive fibers are calculated by dividing the number of positive fibers by the total fibers counted. Normal muscle samples have 100% dystrophin-positive fibers. Therefore, the percent dystrophin-positive fibers can be expressed as a percentage of normal. To control for the presence of trace levels of dystrophin in the pretreatment muscle as well as revertant fibers a baseline can be set using sections of pre-treatment muscles from each patient when counting dystrophin-positive fibers in post-treatment muscles. This may be used as a threshold for counting dystrophin-positive fibers in sections of post-treatment muscle in that patient. In other embodiments, antibody-stained tissue sections can also be used for dystrophin quantification using Bioquant image analysis software (Bioquant Image Analysis Corporation, Nashville, Tenn.). The total dystrophin fluorescence signal intensity can be reported as a percentage of normal. […] Dystrophin production can also be measured by reverse-transcription polymerase chain reaction (RT-PCR). […] The percentage of dystrophin-positive fibers can also be analyzed by determining the expression of the components of the sarcoglycan complex (β,γ) and/or neuronal NOS. […]

[5] = Safety and tolerability monitoring, Study 201/202; type: in vivo, human
Method: Safety was assessed by evaluation of adverse events, vital signs, physical examinations, electrocardiograms, echocardiograms, and clinical laboratory testing. In addition, kidney function was monitored via regular assessments of serum cystatin C and urine cystatin C and KIM-1.

[6] = test system: patients with Duchenne muscular dystrophy (DMD) amenable to exon 51 skipping; assay: Ability to rise independently from supine / rise time; type: in vivo, human
Excerpt: In some embodiments, muscle function in a DMD patient may be assessed for ability to rise from a supine position without external assistance (independently). In some embodiments, the assessment can include whether or not the subject has the ability to rise from a supine position. In some embodiments, the assessment includes the time (e.g., in seconds) it takes for the patient to rise from a supine position without external assistance. Such measurements are well known to the skilled artisan and are described in, e.g., Bushby and Connor (2011) Clin Investig (Lond.) 1(9):1217-1235 and Henricson et al. (2013) Muscle Nerve 48(1):55-67, the disclosures of each of which are incorporated herein by reference in their entirety. In some embodiments, a patient treated by any of the methods described herein has lost the ability to rise independently from a supine position prior to beginning treatment with eteplirsen. In some embodiments, the patient lost the ability to rise independently from a supine position at least one (e.g., at least two, three, four, five, six, seven, eight, nine, 10, 11, 12, 16, 18, 20, 24, or more) month(s) prior to beginning treatment with eteplirsen. In some embodiments, a patient treated by any of the methods described herein loses the ability to rise independently from a supine position while being treated with eteplirsen. In some embodiments, the patient loses the ability to rise independently from a supine position at least one (e.g., at least two, three, four, five, six, seven, eight, nine, 10, 11, 12, 16, 18, 20, 24, 30, or 36 or more) month(s) after commencing treatment with eteplirsen.
as §2

[7] = individual ambulatory subjects (n=10), year of loss of ability in brackets

Substance: RNA, [P-deoxy-P-(dimethylamino)](2′,3′-dideoxy-2′,3′-imino-2′,3′-seco)(2′a→5′)(C-m5U-C-C-A-A-C-A-m5U-C-A-A-G-G-A-A-G-A-m5U-G-G-C-A-m5U-m5U-m5U-C-m5U-A-G), 5′-[P-[4-[[2-[2-(2-hydroxyethoxy)ethoxy]ethoxy]carbonyl]-1-piperazinyl]-N,N-dimethylphosphonamidate] (antisense CTCCAACATCAAGGAAGATGGCATTTCTAG; all phosphorodiamidate morpholino (PMO); 5' piperazinyl triethylene glycol carbamate tail on phosphonamidate, further chemistry not fully specified) [eteplirsen]
- exon 51 skipping [1]: all patients had measurable exon 51 skipping
- rate of decline in NSAA score ([2]; at 2 and 3 years following treatment, vs external control): slower rate of decline in NSAA score
- difference in NSAA score compared to the external control group cohort ([2]; at 3 years): 2.6 points
- Year 3 NSAA Score ([2]; individual ambulatory subjects (n=10)): 13 (3×) and 14 and 24 and 25 (2×) and 7 and 8 and 11
- patients with dystrophin positive fibers as measured by immunohistochemistry (dystrophin [3]; 180 weeks): 10 of 11
- dystrophin positive fibers compared to matched external control patients (dystrophin [3]; after 180 weeks, four blinded pathologists, p<0.001): significantly higher amount of dystrophin positive fibers
- patients with dystrophin protein expression as measured by western blot analysis (dystrophin [4]): 9 of 11
- drug-related serious adverse events ([5]; over 2300 doses, 192 week treatment period): no drug-related serious adverse events
- chemistries: hematologic, renal, coagulation or liver functions ([5]; through 216 weeks of treatment): no clinically significant changes in hematologic, renal, coagulation or liver functions
- electrocardiograms, echocardiograms and PFTs ([5]; through 216 weeks of treatment): remained stable
- physical examination and vital signs ([5]; through 216 weeks of treatment): no clinically significant changes
- tolerability: adverse events, discontinuations, missed doses ([5]; through 216 weeks of treatment): well tolerated with no treatment-related adverse events, serious adverse events, discontinuations or missed doses
- number of patients who lost the ability to rise without external support ([6]; from years 1 to 3): four
- Year 3 Rise Time [6, 7]: 24.1 s and 17.9 s and 13.1 s and 8.9 s and 8.2 s and 6.2 s
- Year 3 Rise Time(s) [6, 7]: Unable to rise
